Data as given in patent US20080039422A1, “Vitamin B12-Containing Compositions and Methods of Use” (Transition Therapeutics Inc., priority 2004, published 2008).

Key:
[1] = CN-Cbl concentration in excipient solutions after challenge, mixing and heating; type: physicochemical
Experimental: The experiments conducted in this series feature cyanocobalamin (CN-Cbl). Varying amounts of CN-Cbl were added to various excipients, including water alone, water with one other agent (e.g., ethanol) and water with two other agents (e.g., ethanol and propylene glycol). The stability was tested after varying amounts of time, and following procedures in which the vitamin B12 compound and its excipient were combined by vigorous mixing and heated.
More specifically, for each excipient condition, CN-Cbl was weighed into an Eppendorf tube, and an appropriate volume of excipient solution was added to achieve the “challenge” concentration in a total volume of ˜0.4-0.7 ml. The tube was then vortexed before being heated to 60° C. for two hours, with additional mixing by vortexing carried out for 5-10 seconds every 5-10 minutes.
Following the mixing and heating procedure described above, the tubes were cooled to room temperature (RT) and left at room temperature for 1-2 hours. Before measuring the concentration of CN-Cbl, the solutions were clarified by centrifugation for ten minutes at rcf 16,100. […] Cyanocobalamin and cyanocobalamin-containing solutions were protected from light (by being kept covered with foil) as much as practicable.
In one study, CN-Cbl was combined with excipients containing propylene glycol, ethanol, PEG 300, or glycerol so that the final maximum concentration of CN-Cbl could be as high as 100 mg/ml. The amount of each excipient was also varied from 5-80% (however, not all possible variants were tested). […] The concentration of CN-Cbl to be solubilized (the “challenge”) in each case was 100 mg/ml of CN-Cbl, and the concentration of each of the excipients varied from 5% to 80% in water. […] The concentrations of CN-Cbl in other excipients were even greater. For example, the concentration of CN-Cbl in solutions containing 40 or 50% PEG 300 was about 45 mg/ml; the concentration in 15% ethanol was about 35 mg/ml; the concentration in 20% ethanol was about 52 mg/ml; and the concentrations in propylene glycol at any concentration over 30% was more than 85 mg/ml (see Table 1).
In other studies, combinations were tested of ethanol and propylene glycol or of ethanol and PEG 300. Tables 2A-2D are tables showing the concentrations of cyanocobalamin (CN-Cbl; mg/ml) in combinations of excipients. […] The concentrations of ethanol ranged from 0-20% and the concentrations of propylene glycol ranged from 0 to 60%. […] In Table 2C, the amount of propylene glycol and the amount of CN-Cbl (the “challenge”) varied. The excipient contained 20% ethanol and 0-40% propylene glycol, and the amount of CN-Cbl challenge added varied from 50-200 mg/ml. Table 2D reports final concentrations of CN-Cbl when excipients containing varying amounts of propylene glycol and ethanol were challenged with 400 mg/ml CN-Cbl.

[2] = Stability of CN-Cbl solutions stored at room temperature (3 days, 2 weeks); type: physicochemical; conditions: After 2 weeks at Room Temperature, ethanol 0%, PG 0% (v/v)
[3] = reported, cited from earlier work

- final concentration of CN-Cbl ([1]; challenge 50 mg/ml, 20% ethanol and 0-40% propylene glycol): about 50 mg/ml
- concentration of CN-Cbl ([1]; challenge 100 mg/mL, Ethanol 10.0% (v/v)): 29400 µg/mL
- concentration of CN-Cbl ([1]; challenge 100 mg/mL, Glycerol 10.0% (v/v)): 18200 µg/mL
- concentration of CN-Cbl ([1]; challenge 100 mg/mL, Glycerol 15.0% (v/v)): 19400 µg/mL
- concentration of CN-Cbl ([1]; challenge 100 mg/mL, Glycerol 20.0% (v/v)): 21500 µg/mL
- concentration of CN-Cbl ([1]; challenge 100 mg/mL, H2O): 14100 µg/mL
- concentration of CN-Cbl ([1]; challenge 100 mg/mL, PEG 300 10.0% (v/v)): 24100 µg/mL
- concentration of CN-Cbl ([1]; challenge 100 mg/mL, PEG 300 20.0% (v/v)): 34400 µg/mL
- concentration of CN-Cbl ([1]; challenge 100 mg/mL, PEG 300 30.0% (v/v)): 40500 µg/mL
- concentration of CN-Cbl ([1]; challenge 100 mg/mL, Propylene Glycol 10.0% (v/v)): 28100 µg/mL
- concentration of CN-Cbl ([1]; challenge 100 mg/mL, Propylene Glycol 20.0% (v/v)): 41800 µg/mL
- concentration of CN-Cbl ([1]; challenge 100 mg/mL, Propylene Glycol 30.0% (v/v)): 95300 µg/mL
- concentration of CN-Cbl ([1]; challenge 100 mg/mL, Propylene Glycol 40.0% (v/v)): 95100 µg/mL
- concentration of CN-Cbl ([1]; challenge 100 mg/mL, Propylene Glycol 50.0% (v/v)): 95100 µg/mL
- concentration of CN-Cbl ([1]; challenge 100 mg/mL, Propylene Glycol 60.0% (v/v)): 95100 µg/mL
- concentration of CN-Cbl ([1]; challenge 100 mg/mL, Propylene Glycol 70.0% (v/v)): 85300 µg/mL
- concentration of CN-Cbl ([1]; challenge 100 mg/mL, Propylene Glycol 80% (v/v)): 90100 µg/mL
- final concentration of CN-Cbl ([1]; challenge 100 mg/ml, 20% ethanol and 0-40% propylene glycol): about 100 mg/ml
- concentration of CN-Cbl ([1]; challenge 100 mg/ml, propylene glycol at any concentration over 30%): more than 85 mg/ml
- final concentration of CN-Cbl ([1]; challenge 175 mg/ml, 20% ethanol and 20% propylene glycol): about 177 mg/ml
- concentration of CN-Cbl ([1]; challenge 200 mg/ml, PEG 300 40%, ethanol 5%): 77000 µg/mL
- concentration of CN-Cbl ([1]; challenge 200 mg/ml, PEG 300 40%, ethanol 10%): 44400 µg/mL
- concentration of CN-Cbl ([1]; challenge 200 mg/ml, PEG 300 40%, ethanol 15%): 62500 µg/mL
- concentration of CN-Cbl ([1]; challenge 200 mg/ml, PG 0%, ethanol 0%): 17500 µg/mL
- concentration of CN-Cbl ([1]; challenge 200 mg/ml, PG 0%, ethanol 5%): 22500 µg/mL
- concentration of CN-Cbl ([1]; challenge 200 mg/ml, PG 0%, ethanol 10%): 28500 µg/mL
- concentration of CN-Cbl ([1]; challenge 200 mg/ml, PG 0%, ethanol 15%): 27700 µg/mL
- concentration of CN-Cbl ([1]; challenge 200 mg/ml, PG 0%, ethanol 20%): 176000 µg/mL
- concentration of CN-Cbl ([1]; challenge 200 mg/ml, PG 20%, ethanol 0%): 31300 µg/mL
- concentration of CN-Cbl ([1]; challenge 200 mg/ml, PG 20%, ethanol 5%): 34400 µg/mL
- concentration of CN-Cbl ([1]; challenge 200 mg/ml, PG 20%, ethanol 10%): 55600 µg/mL
- concentration of CN-Cbl ([1]; challenge 200 mg/ml, PG 20%, ethanol 15%): 182500 µg/mL
- concentration of CN-Cbl ([1]; challenge 200 mg/ml, PG 20%, ethanol 20%): 177500 µg/mL
- concentration of CN-Cbl ([1]; challenge 200 mg/ml, PG 30%, ethanol 0%): 35900 µg/mL
- concentration of CN-Cbl ([1]; challenge 200 mg/ml, PG 30%, ethanol 5%): 64800 µg/mL
- concentration of CN-Cbl ([1]; challenge 200 mg/ml, PG 30%, ethanol 15%): 150500 µg/mL
- concentration of CN-Cbl ([1]; challenge 200 mg/ml, PG 30%, ethanol 20%): 180200 µg/mL
- concentration of CN-Cbl ([1]; challenge 200 mg/ml, PG 40%, ethanol 0%): 172500 µg/mL
- concentration of CN-Cbl ([1]; challenge 200 mg/ml, PG 40%, ethanol 5%): 177100 µg/mL
- concentration of CN-Cbl ([1]; challenge 200 mg/ml, PG 40%, ethanol 10%): 184400 µg/mL
- concentration of CN-Cbl ([1]; challenge 200 mg/ml, PG 40%, ethanol 20%): 186000 µg/mL
- concentration of CN-Cbl ([1]; challenge 200 mg/ml, PG 50%, ethanol 0%): 145100 µg/mL
- concentration of CN-Cbl ([1]; challenge 200 mg/ml, PG 50%, ethanol 5%): 179400 µg/mL
- concentration of CN-Cbl ([1]; challenge 200 mg/ml, PG 50%, ethanol 10%): 190200 µg/mL
- concentration of CN-Cbl ([1]; challenge 200 mg/ml, PG 50%, ethanol 15%): 179400 µg/mL
- concentration of CN-Cbl ([1]; challenge 200 mg/ml, PG 50%, ethanol 20%): 187900 µg/mL
- concentration of CN-Cbl ([1]; challenge 200 mg/ml, PG 60%, ethanol 0%): 185200 µg/mL
- concentration of CN-Cbl ([1]; challenge 200 mg/ml, PG 60%, ethanol 5%): 184800 µg/mL
- concentration of CN-Cbl ([1]; challenge 200 mg/ml, PG 60%, ethanol 10%): 186800 µg/mL
- concentration of CN-Cbl ([1]; challenge 200 mg/ml, PG 60%, ethanol 15%): 186400 µg/mL
- concentration of CN-Cbl ([1]; challenge 200 mg/ml, PG 60%, ethanol 20%): 196000 µg/mL
- concentration of CN-Cbl ([1]; control experiments: water, challenged with 200 mg/ml): about 20 mg/ml
- CN-Cbl solubilized ([1]; water, regardless of the amount of the challenge (50-200 mg/ml)): no more than 30 mg/ml
- Conc of CN-Cbl ([2]; challenge 50 mg/mL): 11460 µg/mL
- Conc of CN-Cbl ([2]; challenge 75 mg/mL): 12310 µg/mL
Substance: cyanocobalamin [CN-Cbl]
- hygroscopicity ([3]; anhydrous form): very hygroscopic
- solubility in water ([3]; 1:80 (Merck Index 1996)): ~12.5 mg/mL
